Measurements from patent EP0230013A1, “New anthracycline derivatives, uses thereof as antitumor agent and production thereof” (ZAIDAN HOJIN BISEIBUTSU KAGAKU KENKYU KAI, priority 1985, dated 1987).
Where two headings read alike, the source gives them in different places.

Key:
[1] = system: Leukemia L-1210; conditions: dosage of 25 mg/kg, single dose per day, intraperitoneally for 9 days, Leukemia L-1210 mice; cited from earlier work
[2] = system: Leukemia P 388; conditions: cited from earlier work
[3] = system: Leukemia L-1210 cells; experiment: Antitumor activity on leukemia in mice caused by Leukemia L-1210 cells (Test I); assay type: in vivo; parameters: key: *: shows that a toxicity or its sign of the compound tested in the animals tested such as death due to toxicity or weight loss was observed; conditions: L-1210 mice
Method: Antitumor activity on leukemia in CDF, mice caused by Leukemia L-1210 cells
In this test, Compound Nos. I and 2 of this invention were assessed in comparison with daunomycin and adriamycin on their tumor inhibitory activity against leukemia in mice. Thus, CDF, mice were intraperitoneally transplanted with cells of Leukemia L-1210 (I ^x 10^5 cells/mouse). From 24 hours after i.p. transplantation of L 1210 cells, each compound to be tested was administered intraperitoneally for 9 consecutive days at once per day. Observation was made for 60 days where survival days of each mouse tested were recorded and percentage increase in lifespan of the treated mice, in comparison with control test wherein mice were treated only, with the administration of physiological saline, was calculated as T/C % where T is the mean survival days of the treated animals and C is the mean survival days of the untreated control animals.The test results are shown in Table I.

[4] = Acid hydrolysis of the glycoside linkage, analysed by TLC (Test 2); assay type: physicochemical
Description: A further advantage of the anthracycline derivatives of formula (I) according to this invention is in that the susceptibility of the glycoside linkage to be broken by acid hydrolysis is very low. This is, we believe, to be one of reasons why the compounds of this invention are of low toxicity. […] Of course, a high chemical stability of a compound in vitro is not always related to its stability against hydrolysis in vivo, but it may be assumed in view of high anticancer effects in vivo of the compounds of this invention that the glycoside linkage of those compounds is of high stability in vivo, too. In any case, it is true that such high chemical stability of the glycoside linkage of the compounds of this invnetion is advantageous in that it makes the handling of those compounds easy in chemical applications. Test 2 given below illustrates the high stability of the glycoside linkage of the compounds of this invention.
Daunomycin (I mg) was dissolved in a mixture (0.1 ml) of 0.2 N^*HCI-80% CH3CN-H,O (^* the 0.2 N concentration of HCI being of the said mixture) and the solution was heated in an oil bath at 61 -62°C for 30 minutes to cause the hydrolysis. […] The reaction solution was allowed to stand at room temperature to deposit daunomycinone as red crystals.
FTDM (0.7 mg) was suspended in a mixture (0.1 ml) of 0.2 N HCI-80% CH,CN-H20 and the suspension was stirred in an oil bath at 61 -62°C for 30 minutes.
A futher amount (0.3 ml) of the mixture of 0.2N HCI-80% CH3CN-H20 was added to the reaction mixture, when the mixture substantially became a solution with a little amount of insolubles. Then, it was heated to 61-62°C under stirring to give a homogeneous solution.

[5] = Dose 5 mg/kg/day i.p. for 9 days
[6] = 0.2 N HCl-80% CH3CN-H2O, 61 -62°C (about 60°C), 30 minutes

SMILES: COc1cccc2c1C(=O)c1c(O)c3c(c(O)c1C2=O)C[C@@](O)(C(C)=O)C[C@@H]3O[C@@H]1O[C@@H](C)[C@H](OC(C)=O)[C@@H](OC(C)=O)[C@H]1I [Compound NSC 331,962, 7-O-(3,4-di-O-acetyl-2,6-dideoxy-2-iodo-a-L-mannohexopyranosyl) daunomycinone]
- increase (in %) of survival days of the mice treated, as compared to the mice untreated (T/C, %) [1]: 196%
- increase (in %) of survival days of the mice treated, compared to the mice untreated (T/C, %) ([2]; dosage of 50 mg/kg, Leukemia P 388 mice): 247%

SMILES: COc1cccc2c1C(=O)c1c(O)c3c(c(O)c1C2=O)C[C@@](O)(C(=O)CO)C[C@@H]3O[C@H]1C[C@H](N)[C@H](O)[C@H](C)O1 [Adriamycin, adriamycin]
- toxicity or its sign (death due to toxicity or weight loss) [3, 5]: *

SMILES: COc1cccc2c1C(=O)c1c(O)c3c(c(O)c1C2=O)C[C@@](O)(C(C)=O)C[C@@H]3O[C@@H]1O[C@@H](C)[C@@H](O)[C@@H](O)[C@H]1F [Compound No. 1, 7-O-(2,6-dideoxy-2-fluoro-α-L-talopyranosyl)daunomycinone]
- acid hydrolysis (TLC) [4, 6]: presence of the spot of FTDM only
- acid hydrolysis (TLC) ([4]; 0.2N HCl-80% CH3CN-H2O, 61-62°C, further 3 hours): the spot of FTDM only
- acid hydrolysis (TLC) ([4]; 1 N HCl in acetonitrile-water (4:1), 61-62°C (about 60°C), 8 hours, listed as Compound No. I): remains substantially as it is,without being decomposed
- acid hydrolysis (TLC) ([4]; 1 N HCl in acetonitrile-water (4:1), 61-62°C (about 60°C), 8 hours, listed as FTDM): a spot of a trace amount of daunomycinone appeared, but most of FTDM was also present as it was

SMILES: COc1cccc2c1C(=O)c1c(O)c3c(c(O)c1C2=O)C[C@@](O)(C(C)=O)C[C@@H]3O[C@@H]1O[C@@H](C)[C@@H](OC(C)=O)[C@@H](OC(C)=O)[C@H]1I [Compound NSC 327,472, 7-O-(3,4-di-O-acetyl-2,6-dideoxy-2-iodo-a-L-talohexopyranosyl)daunomycinone]
- increase (%) of survival days of the Leukemia P 388-inoculated mice treated ([2]; dosage of 12.5 mg/kg to 25 mg/kg): 172%
- increase (%) of survival days of the Leukemia P 388-inoculated mice treated ([2]; dosage of 150 mg/kg): 162%

SMILES: COc1cccc2c1C(=O)c1c(O)c3c(c(O)c1C2=O)C[C@@](O)(C(C)=O)C[C@@H]3O[C@H]1C[C@H](N)[C@H](O)[C@H](C)O1 [Daunomycin, daunomycin]
- toxicity or its sign (death due to toxicity or weight loss) ([3]; Dose 2.5 mg/kg/day i.p. for 9 days): *
- toxicity or its sign (death due to toxicity or weight loss) [3, 5]: *
- acid hydrolysis (TLC) [4, 6]: disappearance of the spot of daunomycin
- acid hydrolysis (TLC) ([4]; 0.2 N HCl-80% CH3CN-H2O, 61 -62°C (about 60°C), 30 minutes, listed as daunomycin): completely decomposed
